Source: ChEMBL document CHEMBL4251601 (Eur J Med Chem, 2018)

What was measured:
[1] = Oral bioavailability in Sprague-Dawley rat at 5 mg/kg administered as single dose by LC-MS/MS analysis; format: ADME, organism-based; settings: Sprague-Dawley, in vivo
[2] = target: Calcium/calmodulin-dependent protein kinase type II subunit beta (Homo sapiens) (UniProt Q13554); assay: Inhibition of recombinant full length human His-tagged CAMK2B expressed in baculovirus expression system at 0.1 uM by Z'-Lyte assay relative to control
Chain of Calcium/calmodulin-dependent protein kinase type II subunit beta (Homo sapiens) (Q13554 whole entry): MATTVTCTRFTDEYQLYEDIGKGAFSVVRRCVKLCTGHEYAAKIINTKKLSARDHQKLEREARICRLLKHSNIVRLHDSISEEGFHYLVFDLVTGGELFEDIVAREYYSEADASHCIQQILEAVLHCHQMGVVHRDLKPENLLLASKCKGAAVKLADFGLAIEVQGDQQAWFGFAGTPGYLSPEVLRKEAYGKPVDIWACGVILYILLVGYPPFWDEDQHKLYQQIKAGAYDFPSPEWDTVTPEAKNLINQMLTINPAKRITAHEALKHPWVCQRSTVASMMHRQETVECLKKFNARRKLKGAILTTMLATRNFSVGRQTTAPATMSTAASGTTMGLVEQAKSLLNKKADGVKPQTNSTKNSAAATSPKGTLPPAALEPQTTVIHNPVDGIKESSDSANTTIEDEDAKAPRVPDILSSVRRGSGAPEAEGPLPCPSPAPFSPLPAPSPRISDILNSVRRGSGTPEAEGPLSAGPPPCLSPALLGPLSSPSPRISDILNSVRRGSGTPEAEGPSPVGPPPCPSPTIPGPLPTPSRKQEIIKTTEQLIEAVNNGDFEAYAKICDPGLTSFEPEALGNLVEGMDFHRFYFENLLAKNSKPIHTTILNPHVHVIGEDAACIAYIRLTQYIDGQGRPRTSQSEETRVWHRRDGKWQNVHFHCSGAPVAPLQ

[3] = target: Cytoplasmic tyrosine-protein kinase BMX (Homo sapiens) (UniProt P51813); assay: Inhibition of recombinant full length human His-tagged BMX expressed in baculovirus expression system at 0.1 uM by TR-FRET assay relative to control
Chain of Cytoplasmic tyrosine-protein kinase BMX (Homo sapiens) (P51813 whole entry): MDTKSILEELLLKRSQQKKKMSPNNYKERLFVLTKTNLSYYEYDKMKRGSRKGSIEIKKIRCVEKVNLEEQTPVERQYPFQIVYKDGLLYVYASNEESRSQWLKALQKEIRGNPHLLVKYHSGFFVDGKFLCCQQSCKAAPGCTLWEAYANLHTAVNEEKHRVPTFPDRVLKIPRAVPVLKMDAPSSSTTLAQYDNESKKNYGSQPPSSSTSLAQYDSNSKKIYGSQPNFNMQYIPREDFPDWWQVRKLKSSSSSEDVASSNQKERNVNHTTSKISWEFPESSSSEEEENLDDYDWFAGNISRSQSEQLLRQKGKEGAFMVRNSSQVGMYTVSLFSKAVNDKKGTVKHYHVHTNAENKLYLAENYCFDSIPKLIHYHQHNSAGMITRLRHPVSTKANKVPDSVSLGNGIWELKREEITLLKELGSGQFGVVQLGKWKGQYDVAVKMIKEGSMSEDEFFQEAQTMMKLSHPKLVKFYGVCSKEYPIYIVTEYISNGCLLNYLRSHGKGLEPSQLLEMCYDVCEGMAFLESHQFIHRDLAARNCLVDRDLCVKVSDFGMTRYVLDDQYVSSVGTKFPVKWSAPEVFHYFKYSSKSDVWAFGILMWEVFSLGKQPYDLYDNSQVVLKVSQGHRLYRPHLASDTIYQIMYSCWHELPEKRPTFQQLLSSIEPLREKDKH

[4] = target: Tyrosine-protein kinase BTK (Homo sapiens) (UniProt Q06187); assay: Inhibition of recombinant full length human His-tagged BTK expressed in baculovirus expression system at 0.1 uM by TR-FRET assay relative to control
[5] = target: Casein kinase I isoform gamma-1 (Homo sapiens) (UniProt Q9HCP0); assay: Inhibition of recombinant full length human GST-tagged CK1gamma1 expressed in baculovirus expression system at 0.1 uM by Z'-Lyte assay relative to control
[6] = target: Dual specificity protein kinase CLK1 (Homo sapiens) (UniProt P49759); assay: Inhibition of recombinant human GST-tagged CLK1 expressed in Escherichia coli at 0.1 uM by Z'-Lyte assay relative to control
Chain of Dual specificity protein kinase CLK1 (Homo sapiens) (P49759 whole entry, looked up, the tested form may be a part): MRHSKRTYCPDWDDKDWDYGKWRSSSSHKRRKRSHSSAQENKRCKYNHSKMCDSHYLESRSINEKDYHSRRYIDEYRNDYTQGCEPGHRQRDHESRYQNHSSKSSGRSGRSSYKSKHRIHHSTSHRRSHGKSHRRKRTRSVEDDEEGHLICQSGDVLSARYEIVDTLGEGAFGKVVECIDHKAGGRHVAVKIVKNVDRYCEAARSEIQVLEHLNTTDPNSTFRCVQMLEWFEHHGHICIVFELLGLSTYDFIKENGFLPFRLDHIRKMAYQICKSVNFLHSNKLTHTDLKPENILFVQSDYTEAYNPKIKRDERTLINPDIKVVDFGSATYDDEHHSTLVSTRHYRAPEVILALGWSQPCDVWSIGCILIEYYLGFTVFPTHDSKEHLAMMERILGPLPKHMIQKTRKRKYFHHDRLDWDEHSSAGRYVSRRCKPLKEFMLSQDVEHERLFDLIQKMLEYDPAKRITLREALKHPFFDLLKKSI

[7] = target: Serine/threonine-protein kinase 10 (Homo sapiens) (UniProt O94804); assay: Inhibition of LOK1 (unknown origin) at 0.1 uM by Z'-Lyte assay relative to control
[8] = target: MAP kinase-activated protein kinase 2 (Homo sapiens) (UniProt P49137); assay: Inhibition of recombinant human full length His-tagged MK2 expressed in Escherichia coli at 0.1 uM by Z'-Lyte assay relative to control
Chain of MAP kinase-activated protein kinase 2 (Homo sapiens) (P49137 whole entry, looked up): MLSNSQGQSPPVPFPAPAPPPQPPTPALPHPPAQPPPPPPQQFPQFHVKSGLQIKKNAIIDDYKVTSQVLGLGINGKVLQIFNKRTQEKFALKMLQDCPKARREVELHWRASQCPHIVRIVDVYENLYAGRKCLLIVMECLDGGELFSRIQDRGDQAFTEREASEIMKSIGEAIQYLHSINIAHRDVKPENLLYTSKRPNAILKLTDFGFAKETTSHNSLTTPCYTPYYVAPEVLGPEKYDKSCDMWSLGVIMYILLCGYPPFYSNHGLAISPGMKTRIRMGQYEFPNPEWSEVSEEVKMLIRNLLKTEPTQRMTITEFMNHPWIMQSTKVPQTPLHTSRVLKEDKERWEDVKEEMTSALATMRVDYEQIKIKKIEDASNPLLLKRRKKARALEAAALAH

[9] = target: RAC-beta serine/threonine-protein kinase (Homo sapiens) (UniProt P31751); assay: Inhibition of recombinant full length human His-tagged AKT2 expressed in baculovirus expression system at 1 uM by TR-FRET assay relative to control
Chain of RAC-beta serine/threonine-protein kinase (Homo sapiens) (P31751 whole entry): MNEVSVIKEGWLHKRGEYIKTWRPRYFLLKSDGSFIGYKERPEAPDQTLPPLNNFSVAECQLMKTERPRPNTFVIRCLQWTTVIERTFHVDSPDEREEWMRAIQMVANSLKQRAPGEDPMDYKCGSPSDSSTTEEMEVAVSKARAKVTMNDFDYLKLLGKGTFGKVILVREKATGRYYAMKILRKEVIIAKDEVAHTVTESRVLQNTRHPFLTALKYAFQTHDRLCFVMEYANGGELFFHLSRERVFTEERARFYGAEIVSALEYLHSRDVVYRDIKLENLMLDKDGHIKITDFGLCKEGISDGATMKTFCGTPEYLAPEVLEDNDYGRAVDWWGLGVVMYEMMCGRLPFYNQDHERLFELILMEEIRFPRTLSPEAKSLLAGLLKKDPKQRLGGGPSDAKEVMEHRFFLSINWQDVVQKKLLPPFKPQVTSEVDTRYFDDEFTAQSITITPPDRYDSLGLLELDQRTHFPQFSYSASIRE

[10] = target: RAC-gamma serine/threonine-protein kinase (Homo sapiens) (UniProt Q9Y243); assay: Inhibition of recombinant full length human His-tagged AKT3 expressed in baculovirus expression system at 1 uM by TR-FRET assay relative to control
Chain of RAC-gamma serine/threonine-protein kinase (Homo sapiens) (Q9Y243 whole entry, the tested form may be a part): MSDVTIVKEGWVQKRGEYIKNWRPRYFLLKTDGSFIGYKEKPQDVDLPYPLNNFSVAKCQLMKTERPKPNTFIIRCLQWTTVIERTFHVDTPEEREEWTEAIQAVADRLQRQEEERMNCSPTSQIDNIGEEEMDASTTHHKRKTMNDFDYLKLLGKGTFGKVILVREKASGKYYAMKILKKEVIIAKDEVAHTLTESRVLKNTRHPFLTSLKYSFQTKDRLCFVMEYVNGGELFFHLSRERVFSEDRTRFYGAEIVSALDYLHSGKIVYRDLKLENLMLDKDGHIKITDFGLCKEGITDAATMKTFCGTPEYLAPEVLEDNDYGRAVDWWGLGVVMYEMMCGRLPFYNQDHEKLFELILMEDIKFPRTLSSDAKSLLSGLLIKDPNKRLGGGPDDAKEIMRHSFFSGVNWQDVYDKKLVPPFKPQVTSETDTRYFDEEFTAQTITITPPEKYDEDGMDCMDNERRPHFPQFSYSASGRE

[11] = system: ALK tyrosine kinase receptor (Homo sapiens), Q9UM73 [C1156Y]; assay: Inhibition of recombinant N-terminal GST-tagged human ALK cytoplasmic domain (1058 to 1620 residues) C1156Y mutant expressed in baculovirus expression system at 1 uM by TR-FRET assay relative to control
[12] = target: Dual specificity protein kinase CLK1 (Homo sapiens) (UniProt P49759); assay: Inhibition of recombinant human GST-tagged CLK1 expressed in Escherichia coli at 1 uM by Z'-Lyte assay relative to control
[13] = target: Epidermal growth factor receptor (Homo sapiens) (UniProt P00533); assay: Inhibition of recombinant human GST-tagged EGFR cytoplasmic domain expressed in baculovirus expression system at 1 uM by TR-FRET assay relative to control
[14] = target: Ephrin type-B receptor 2 (Homo sapiens) (UniProt P29323); assay: Inhibition of recombinant human GST-tagged EPHB2 cytoplasmic domain (616 to 884 residues) expressed in baculovirus expression system at 1 uM by Z'-Lyte assay relative to control
[15] = target: Receptor tyrosine-protein kinase erbB-2 (Homo sapiens) (UniProt P04626); assay: Inhibition of recombinant human His-tagged ERBB2 cytoplasmic domain expressed in baculovirus expression system at 1 uM by Z'-Lyte assay relative to control
Chain of Receptor tyrosine-protein kinase erbB-2 (Homo sapiens) (P04626 whole entry, the tested form may be a part): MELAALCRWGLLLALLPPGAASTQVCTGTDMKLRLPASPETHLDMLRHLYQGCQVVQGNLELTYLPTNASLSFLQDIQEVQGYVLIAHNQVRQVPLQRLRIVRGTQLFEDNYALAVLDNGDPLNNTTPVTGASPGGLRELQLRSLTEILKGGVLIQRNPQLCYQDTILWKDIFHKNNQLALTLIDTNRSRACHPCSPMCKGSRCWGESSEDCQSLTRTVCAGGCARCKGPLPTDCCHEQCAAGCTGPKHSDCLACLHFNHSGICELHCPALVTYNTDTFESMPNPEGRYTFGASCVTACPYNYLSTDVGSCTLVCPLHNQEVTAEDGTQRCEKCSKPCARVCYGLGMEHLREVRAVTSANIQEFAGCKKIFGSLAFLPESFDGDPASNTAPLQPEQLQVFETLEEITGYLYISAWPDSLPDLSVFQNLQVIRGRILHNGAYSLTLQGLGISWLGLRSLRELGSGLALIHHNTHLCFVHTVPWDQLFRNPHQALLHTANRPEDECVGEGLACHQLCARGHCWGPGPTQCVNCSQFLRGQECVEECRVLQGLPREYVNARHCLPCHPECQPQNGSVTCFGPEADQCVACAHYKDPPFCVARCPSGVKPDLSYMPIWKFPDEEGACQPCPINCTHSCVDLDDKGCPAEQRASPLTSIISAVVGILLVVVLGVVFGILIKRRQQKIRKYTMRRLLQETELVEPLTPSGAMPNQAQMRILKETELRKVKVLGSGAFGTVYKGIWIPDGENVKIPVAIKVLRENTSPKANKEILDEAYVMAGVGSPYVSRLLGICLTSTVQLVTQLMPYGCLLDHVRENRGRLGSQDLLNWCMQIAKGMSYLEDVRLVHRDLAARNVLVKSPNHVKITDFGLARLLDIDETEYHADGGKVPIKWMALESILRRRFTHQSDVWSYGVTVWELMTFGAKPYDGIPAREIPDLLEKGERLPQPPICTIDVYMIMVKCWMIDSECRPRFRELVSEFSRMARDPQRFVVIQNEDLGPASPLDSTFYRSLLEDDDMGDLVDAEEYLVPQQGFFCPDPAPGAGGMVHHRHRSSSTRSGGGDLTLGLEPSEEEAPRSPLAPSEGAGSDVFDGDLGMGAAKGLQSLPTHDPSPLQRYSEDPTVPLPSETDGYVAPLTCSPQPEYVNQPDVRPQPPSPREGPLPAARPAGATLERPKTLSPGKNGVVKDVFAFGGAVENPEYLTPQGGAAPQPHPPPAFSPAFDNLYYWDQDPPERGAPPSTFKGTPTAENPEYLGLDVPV

[16] = target: G protein-coupled receptor kinase 6 (Homo sapiens) (UniProt P43250); assay: Inhibition of recombinant human full length GST-tagged GRK6 expressed in baculovirus expression system at 1 uM by Z'-Lyte assay relative to control
Chain of G protein-coupled receptor kinase 6 (Homo sapiens) (P43250 whole entry, looked up): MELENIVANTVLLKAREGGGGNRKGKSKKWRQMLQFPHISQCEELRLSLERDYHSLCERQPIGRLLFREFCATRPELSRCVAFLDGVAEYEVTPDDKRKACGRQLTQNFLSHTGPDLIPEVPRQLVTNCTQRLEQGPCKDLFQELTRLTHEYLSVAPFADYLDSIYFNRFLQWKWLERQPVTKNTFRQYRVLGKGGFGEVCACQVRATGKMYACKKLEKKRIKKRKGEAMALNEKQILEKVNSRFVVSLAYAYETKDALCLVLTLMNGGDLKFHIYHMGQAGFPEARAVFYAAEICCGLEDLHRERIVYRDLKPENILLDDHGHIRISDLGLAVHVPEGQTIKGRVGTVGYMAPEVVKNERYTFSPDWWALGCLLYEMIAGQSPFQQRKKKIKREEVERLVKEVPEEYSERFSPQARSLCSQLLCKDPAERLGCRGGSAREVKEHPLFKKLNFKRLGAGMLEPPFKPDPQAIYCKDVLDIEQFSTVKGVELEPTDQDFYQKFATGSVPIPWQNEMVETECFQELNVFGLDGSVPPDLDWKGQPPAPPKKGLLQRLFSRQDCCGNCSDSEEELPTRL

[17] = target: Tyrosine-protein kinase JAK3 (Homo sapiens) (UniProt P52333); assay: Inhibition of recombinant human GST-tagged JAK3 expressed in baculovirus expression system at 1 uM by TR-FRET assay relative to control
[18] = target: MAP kinase-activated protein kinase 2 (Homo sapiens) (UniProt P49137); assay: Inhibition of recombinant human full length His-tagged MK2 expressed in Escherichia coli at 1 uM by Z'-Lyte assay relative to control
[19] = target: Serine/threonine-protein kinase PAK 2 (Homo sapiens) (UniProt Q13177); assay: Inhibition of recombinant human full length GST-tagged PAK2 expressed in baculovirus expression system at 1 uM by Z'-Lyte assay relative to control
[20] = target: RAF proto-oncogene serine/threonine-protein kinase (Homo sapiens) (UniProt P04049); assay: Inhibition of RAF1 (unknown origin) at 1 uM by TR-FRET assay relative to control
U-87 MG [21] = assay: Cell cycle arrest in human U87MG cells after assessed as accumulation at G1-phase after 24 hrs by propidium iodide staining based flow cytometry; format: functional, U-87MG ATCC
[22] = 1-octanol-phosphate buffer distribution coefficient, log D of the compound at pH 7.4 after 1 hr by LC-MS/MS method; format: physicochemical
[23] = Volume of distribution at steady state in ICR mouse at 2 mg/kg, iv administered as single dose by LC-MS/MS analysis; format: ADME, organism-based; settings: in vivo, read-out: Vdss
[24] = AUC (0 to 24 hrs) in ICR mouse at 2 mg/kg, iv administered as single dose by LC-MS/MS analysis; format: ADME, organism-based; design: dose 2 mg/kg, time < 24 hr, route intravenous; settings: in vivo
[25] = AUC (0 to 24 hrs) in ICR mouse at 5 mg/kg, po administered as single dose by LC-MS/MS analysis; format: ADME, organism-based; design: time < 24 hr, dose 5 mg/kg, route oral; settings: in vivo
[26] = Half life in ICR mouse at 5 mg/kg, po administered as single dose by LC-MS/MS analysis; format: ADME, organism-based; settings: in vivo
[27] = AUC (0 to 48 hrs) in CD-1 mouse plasma at 10 mg/kg, po administered as single dose by LC-MS/MS analysis; format: ADME, organism-based; design: time < 48 hr, dose 10 mg/kg, route oral
U-87 MG [28] = assay: Antitumor activity against luciferase-fused human U87MG cells orthotopically xenografted in nude mouse assessed as tumor growth inhibition at 3.125 mg/kg, po qd for 4 weeks by bioluminescence imaging relative to control; format: functional, U-87MG ATCC; settings: 672 h, read-out: TGI
U-87 MG [29] = assay: Antitumor activity against luciferase-fused human U87MG cells orthotopically xenografted in nude mouse assessed as increase in mouse life span at 50 mg/kg, po qd for 5 weeks relative to control; format: functional, U-87MG ATCC; settings: 840 h
[30] = system: Mitogen-activated protein kinase kinase kinase 7; assay: Inhibition of TAK1 (unknown origin) at 1 uM by TR-FRET assay relative to control; settings: Homo sapiens

## CC1=Nc2c(F)cc(-c3nc(Nc4ccc(C5CCN(C)CC5)cn4)ncc3F)cc2C12CCCC2 [CROZBACICLIB]
[1]
  bioavailability: 66%
[2]
  inhibition: 25%
[3]
  inhibition: 9%
[4]
  inhibition: -9%
[5]
  inhibition: 3%
[6]
  inhibition: 28%
[7]
  inhibition: 11%
[8]
  inhibition: 0%
[9]
  inhibition: 9%
[10]
  inhibition: 25%
[11]
  inhibition: 28%
[12]
  inhibition: 99%
[13]
  inhibition: 31%
[14]
  inhibition: 3%
[15]
  inhibition: 3%
[16]
  inhibition: 4%
[17]
  inhibition: 92%
[18]
  inhibition: -1%
[19]
  inhibition: 10%
[20]
  inhibition: 0%
U-87 MG [21]
  Emax: 41.1%
U-87 MG [21]; U-87MG ATCC
  Activity: Dose-dependent effect
[22]
  logD at 1 h: 3.49
[23]
  Vd: 17.8 L/kg
[24]
  AUC(0-t) at 24 h: 1140 ng·h/mL
[25]
  AUC(0-t) at 24 h: 2130 ng·h/mL
[26]
  half-life: 8.38 h
[27]
  AUC(0-t) at 48 h: 9060 ng·h/mL
U-87 MG [28]
  inhibition in vivo at 3.125 mg/kg: 62%
U-87 MG [29]
  ILS at 50 mg/kg: 162%
[30]
  inhibition: 17%
